In patent US20230286970A1, “NOVEL OXADIAZOLE-BASED SELECTIVE HDAC6 INHIBITORS” (ITALFARMACO S.P.A., priority 2020, published 2023):

Columns and labels:
[1] = target: recombinant human HDAC6 (Homo sapiens (Human), UniProt Q9UBN7); experiment: Enzymatic screening, HDAC6 inhibition (fluorogenic FdL_G substrate); format: biochemical
Procedure: (§1) For each test compound, 100× concentrated DMSO solutions at 8 doses were prepared and then diluted in assay buffer (25 mM Tris-HCl, pH 8, 130 mM NaCl, 0.05% Tween-20, 10% Glycerol) to obtain 5× concentrated solutions in relation to the final concentrations (typical final concentration range—6.4-200000 nM or 0.18-50000 nM, final DMSO content—1%). Then 10 μL solution of each test compound concentration were placed on a 96-well plate in triplicate and 15 μL of 3.33× concentrated enzyme solution in the assay buffer containing 3.33× concentrated BSA (final BSA concentration—2 mg/mL for HDAC4, HDAC5 and HDAC9 or 1 mg/mL for other isoforms) and in the case of HDAC6-3.33× concentrated TCEP (final TCEP concentration—200 μM) were added to each well. After a period of preincubation (incubation times and temperatures vary for different isoforms and are shown in table 1) 25 μL of solution containing the substrate were added. As substrate, FLUOR DE LYS® deacetylase substrate (Enzo Life Sciences, cat: BML-KI104, FdL), FLUOR DE LYS®-Green substrate (Enzo Life Sciences, cat: BML-KI572, FdL_G) or Boc-Lys(Tfa)-AMC (Bachem, cat: 4060676.005, Tfal)—2× concentrated solution in assay buffer were used. Following a reaction period (reaction times and temperatures vary for different isoforms and are reported in Table 1), 50 μL of the development solution consisting of concentrate FLUOR DE LYS® developer I (Enzo Life Sciences, ca: BML-KI105), diluted 200 times in buffer (50 mM Tris-HCl, pH 8, 137 mM NaCl, 2.7 mM KCl, 1 mM MgCl2) plus 2 μM TSA was added and, after 25 minutes at room temperature in the dark, using the Victor 1420 Multilabel Counter Perkin Elmer Wallac instrument, the fluorescence reading was carried out.

[2] = target: recombinant human HDAC1 (Homo sapiens (Human), UniProt Q13547); experiment: Enzymatic screening, HDAC1 inhibition (fluorogenic FdL_G substrate); format: biochemical
Chain of recombinant human HDAC1 (Q13547 whole entry): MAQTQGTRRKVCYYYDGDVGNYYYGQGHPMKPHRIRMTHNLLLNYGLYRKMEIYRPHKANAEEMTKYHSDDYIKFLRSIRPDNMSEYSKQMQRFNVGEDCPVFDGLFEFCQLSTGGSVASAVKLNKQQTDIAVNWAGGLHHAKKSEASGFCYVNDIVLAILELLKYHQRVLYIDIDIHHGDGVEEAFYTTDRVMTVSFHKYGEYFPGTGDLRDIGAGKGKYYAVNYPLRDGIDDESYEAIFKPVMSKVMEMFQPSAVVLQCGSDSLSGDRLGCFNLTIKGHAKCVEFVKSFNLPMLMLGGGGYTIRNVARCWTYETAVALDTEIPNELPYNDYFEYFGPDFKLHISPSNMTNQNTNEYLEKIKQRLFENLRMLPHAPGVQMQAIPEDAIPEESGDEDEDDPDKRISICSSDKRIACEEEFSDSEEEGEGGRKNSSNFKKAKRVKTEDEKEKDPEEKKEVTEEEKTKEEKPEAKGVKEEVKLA
Procedure: as §1

Chain of recombinant human HDAC6 (Q9UBN7 whole entry, canonical isoform): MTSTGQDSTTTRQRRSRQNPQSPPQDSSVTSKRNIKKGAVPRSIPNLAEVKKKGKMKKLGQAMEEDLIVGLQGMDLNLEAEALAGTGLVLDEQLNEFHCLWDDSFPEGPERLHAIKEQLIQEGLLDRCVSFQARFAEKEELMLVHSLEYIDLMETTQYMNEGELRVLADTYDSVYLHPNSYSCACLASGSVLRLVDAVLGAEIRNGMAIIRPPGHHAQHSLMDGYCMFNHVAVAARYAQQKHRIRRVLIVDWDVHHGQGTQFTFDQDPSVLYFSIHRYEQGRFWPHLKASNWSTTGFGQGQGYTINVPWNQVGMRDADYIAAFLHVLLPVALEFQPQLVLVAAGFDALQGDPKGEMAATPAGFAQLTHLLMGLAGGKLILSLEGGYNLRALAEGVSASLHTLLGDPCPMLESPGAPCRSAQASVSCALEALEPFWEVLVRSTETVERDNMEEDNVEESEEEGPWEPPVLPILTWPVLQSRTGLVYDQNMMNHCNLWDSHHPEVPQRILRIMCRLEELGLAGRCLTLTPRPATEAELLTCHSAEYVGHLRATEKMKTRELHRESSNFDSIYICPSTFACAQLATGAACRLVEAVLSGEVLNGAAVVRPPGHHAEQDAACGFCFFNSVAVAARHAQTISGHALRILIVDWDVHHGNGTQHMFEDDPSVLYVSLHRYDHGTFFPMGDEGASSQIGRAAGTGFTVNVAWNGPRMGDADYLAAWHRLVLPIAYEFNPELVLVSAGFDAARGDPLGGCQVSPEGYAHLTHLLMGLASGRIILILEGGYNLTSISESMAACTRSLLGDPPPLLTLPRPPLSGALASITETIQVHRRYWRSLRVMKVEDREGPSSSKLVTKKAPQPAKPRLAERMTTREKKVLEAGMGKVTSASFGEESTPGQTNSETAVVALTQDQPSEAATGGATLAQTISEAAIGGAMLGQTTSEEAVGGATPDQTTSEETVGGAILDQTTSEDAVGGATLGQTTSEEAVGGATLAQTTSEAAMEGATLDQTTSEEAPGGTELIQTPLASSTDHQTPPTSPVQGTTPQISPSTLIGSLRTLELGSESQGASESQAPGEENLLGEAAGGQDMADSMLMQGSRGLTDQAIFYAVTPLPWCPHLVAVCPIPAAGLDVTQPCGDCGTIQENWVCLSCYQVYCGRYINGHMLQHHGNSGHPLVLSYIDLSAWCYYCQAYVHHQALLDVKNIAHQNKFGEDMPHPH

Row | Compound | IC50 [1] | IC50 [2]
1 | CN1CC(C(=O)Nc2cccc(-c3cn(Cc4c(F)cc(-c5nnc(C(F)F)o5)cc4F)nn3)c2)C1 [Compd. 86, N-(3-(1-(4-(5-(difluoromethyl)-1,3,4-oxadiazol-2-yl)-2,6-difluorobenzyl)-1H-1,2,3-triazol-4-yl)phenyl)-1-methylazetidine-3-carboxamide] | 34 nM | > 200000 nM
2 | O=C(Nc1ccc(-c2cn(Cc3ncc(-c4nnc(C(F)F)o4)cn3)nn2)cn1)C(F)F [Compd. 88, N-(5-(1-((5-(5-(difluoromethyl)-1,3,4-oxadiazol-2-yl)pyrimidin-2-yl)methyl)-1H-1,2,3-triazol-4-yl)pyridin-2-yl)-2,2-difluoroacetamide] | 34 nM | > 200000 nM
3 | Nc1ccc(-c2cn(C(CO)c3ccc(-c4nnc(C(F)F)o4)cc3)nn2)cn1 (stereo not drawn) [Compd. 94, 2-(4-(6-aminopyridin-3-yl)-1H-1,2,3-triazol-1-yl)-2-(4-(5-(difluoromethyl)-1,3,4-oxadiazol-2-yl)phenyl)ethan-1-ol] | 36 nM | > 200000 nM
4 | NCC(=O)Nc1cccc(-c2cn(Cc3c(F)cc(-c4nnc(C(F)F)o4)cc3F)nn2)c1 [Compd. 144, 2-amino-N-(3-(1-(4-(5-(difluoromethyl)-1,3,4-oxadiazol-2-yl)-2,6-difluorobenzyl)-1H-1,2,3-triazol-4-yl)phenyl)acetamide] | 60 nM | > 200000 nM
5 | O=C(Nc1cccc(-c2nc(Cc3c(F)cc(-c4nnc(C(F)F)o4)cc3F)no2)c1)N1CCOCC1 [Compd. 145, N-(3-(3-(4-(5-(difluoromethyl)-1,3,4-oxadiazol-2-yl)-2,6-difluorobenzyl)-1,2,4-oxadiazol-5-yl)phenyl)morpholine-4-carboxamide] | 61 nM | > 200000 nM
6 | COc1ncc(NCc2ccc(-c3cn(Cc4c(F)cc(-c5nnc(C(F)F)o5)cc4F)nn3)cc2)cc1C(N)=O [Compd. 154, 5-((4-(1-(4-(5-(difluoromethyl)-1,3,4-oxadiazol-2-yl)-2,6-difluorobenzyl)-1H-1,2,3-triazol-4-yl)benzyl)amino)-2-methoxynicotinamide] | 67 nM | > 200000 nM
7 | C[C@@H](c1ccc(-c2nnc(C(F)F)o2)cn1)n1cc(-c2ccc(N)nc2)nn1 [Compd. 171, (S)-5-(1-(1-(5-(5-(difluoromethyl)-1,3,4-oxadiazol-2-yl)pyridin-2-yl)ethyl)-1H-1,2,3-triazol-4-yl)pyridin-2-amine] | 82 nM | > 200000 nM
8 | CC(C)(C)OC(=O)NCC(=O)Nc1cccc(-c2cn(Cc3c(F)cc(-c4nnc(C(F)F)o4)cc3F)nn2)c1 [Compd. 172, tert-butyl (2-((3-(1-(4-(5-(difluoromethyl)-1,3,4-oxadiazol-2-yl)-2,6-difluorobenzyl)-1H-1,2,3-triazol-4-yl)phenyl)amino)-2-oxoethyl)carbamate] | 86 nM | > 200000 nM
9 | Nc1ccc(-c2cc(Cc3ccc(-c4nnc(C(F)F)o4)cc3)on2)cn1 [Compd. 202, 5-(5-(4-(5-(difluoromethyl)-1,3,4-oxadiazol-2-yl)benzyl)isoxazol-3-yl)pyridin-2-amine] | 116 nM | > 200000 nM
10 | NC(=O)c1cccc(-c2noc(Cc3ccc(-c4nnc(C(F)F)o4)cc3)n2)c1 [Compd. 226, 3-(5-(4-(5-(difluoromethyl)-1,3,4-oxadiazol-2-yl)benzyl)-1,2,4-oxadiazol-3-yl)benzamide] | 169 nM | > 200000 nM
11 | Nc1ccc(-c2cn(C(Cc3ccc(Cl)cc3)c3ccc(-c4nnc(C(F)F)o4)cc3)nn2)cn1 (stereo not drawn) [Compd. 231, 5-(1-(2-(4-chlorophenyl)-1-(4-(5-(difluoromethyl)-1,3,4-oxadiazol-2-yl)phenyl)ethyl)-1H-1,2,3-triazol-4-yl)pyridin-2-amine] | 197 nM | > 200000 nM
12 | CN1CC(=O)Nc2cc(-c3cn(Cc4c(F)cc(-c5nnc(C(F)F)o5)cc4F)nn3)ccc2C1 [Compd. 237, 8-(1-(4-(5-(difluoromethyl)-1,3,4-oxadiazol-2-yl)-2,6-difluorobenzyl)-1H-1,2,3-triazol-4-yl)-4-methyl-1,3,4,5-tetrahydro-2H-benzo[e][1,4]diazepin-2-one] | 210 nM | > 200000 nM
13 | FC(F)c1nnc(-c2ccc(Cc3nnc(-c4ccccc4)s3)cc2)o1 [Compd. 238, 2-(difluoromethyl)-5-(4-((5-phenyl-1,3,4-thiadiazol-2-yl)methyl)phenyl)-1,3,4-oxadiazole] | 211 nM | > 200000 nM
14 | Nc1ccc(-c2cn(C(CC3CCC3)c3ccc(-c4nnc(C(F)F)o4)cc3)nn2)cn1 (stereo not drawn) [Compd. 242, 5-(1-(2-cyclobutyl-1-(4-(5-(difluoromethyl)-1,3,4-oxadiazol-2-yl)phenyl)ethyl)-1H-1,2,3-triazol-4-yl)pyridin-2-amine] | 252 nM | > 200000 nM
15 | Nc1ccc(-c2noc(C(F)(F)c3ccc(-c4nnc(C(F)F)o4)cc3)n2)cn1 [Compd. 243, 5-(5-((4-(5-(difluoromethyl)-1,3,4-oxadiazol-2-yl)phenyl)difluoromethyl)-1,2,4-oxadiazol-3-yl)pyridin-2-amine] | 234 nM | > 200000 nM
16 | O=C1NCc2ccc(-c3cn(Cc4ccc(-c5nnc(C(F)F)o5)cn4)cn3)cc21 [Compd. 292, 6-(1-((5-(5-(difluoromethyl)-1,3,4-oxadiazol-2-yl)pyridin-2-yl)methyl)-1H-imidazol-4-yl)isoindolin-1-one] | 30 nM | > 200000 nM
17 | CS(=O)(=O)NCCC(c1ccc(-c2nnc(C(F)F)o2)cn1)n1cc(-c2ccc(N)nc2)nn1 (stereo not drawn) [Compd. 293, N-(3-(4-(6-aminopyridin-3-yl)-1H-1,2,3-triazol-1-yl)-3-(5-(5-(difluoromethyl)-1,3,4-oxadiazol-2-yl)pyridin-2-yl)propyl)methanesulfonamide] | 31 nM | > 200000 nM
18 | Nc1ccc(-c2cn(C(CN3CCCC3)c3ccc(-c4nnc(C(F)F)o4)cn3)nn2)cn1 (stereo not drawn) [Compd. 301, 5-(1-(1-(5-(5-(difluoromethyl)-1,3,4-oxadiazol-2-yl)pyridin-2-yl)-2-(pyrrolidin-1-yl)ethyl)-1H-1,2,3-triazol-4-yl)pyridin-2-amine] | 64 nM | > 200000 nM
19 | FC(F)c1nnc(-c2ccc(Cn3cc(-c4ccc(NC5=NCCN5)cc4)nn3)nc2)o1 [compd. 24, N-(4-(1-((5-(5-(difluoromethyl)-1,3,4-oxadiazol-2-yl)pyridin-2-yl)methyl)-1H-1,2,3-triazol-4-yl)phenyl)-4,5-dihydro-1H-imidazol-2-amine] | 7 nM | > 200000 nM
20 | Nc1ccc(-c2cn(Cc3ncc(-c4nnc(C(F)F)o4)cn3)nn2)cn1 [compd. 125, 5-(1-((5-(5-(difluoromethyl)-1,3,4-oxadiazol-2-yl)pyrimidin-2-yl)methyl)-1H-1,2,3-triazol-4-yl)pyridin-2-amine] | 48 nM | > 200000 nM
21 | CNC(=O)Nc1ccc(-c2nnc(Cc3ccc(-c4nnc(C(F)F)o4)cc3)o2)cn1 [compd. 170, 1-(5-(5-(4-(5-(difluoromethyl)-1,3,4-oxadiazol-2-yl)benzyl)-1,3,4-oxadiazol-2-yl)pyridin-2-yl)-3-methylurea] | 81 nM | > 200000 nM
22 | FC(F)c1nnc(-c2ccc(Cn3cc(-c4ccc5nc(N6CCCC6)[nH]c5c4)nn3)cc2)o1 [compd. 190, 2-(difluoromethyl)-5-(4-((4-(2-(pyrrolidin-1-yl)-1H-benzo[d]imidazol-6-yl)-1H-1,2,3-triazol-1-yl)methyl)phenyl)-1,3,4-oxadiazole] | 99 nM | > 200000 nM
23 | Nc1cccc(-c2cn(Cc3ccc(-c4nnc(C(F)F)o4)cc3)cn2)c1 [compd. 197, 3-(1-(4-(5-(difluoromethyl)-1,3,4-oxadiazol-2-yl)benzyl)-1H-imidazol-4-yl)aniline] | 107 nM | > 200000 nM
24 | FC(F)c1nnc(-c2ccc(Cn3cc(-c4ccccc4)nn3)cc2)o1 [compd. 234, 2-(difluoromethyl)-5-(4-((4-phenyl-1H-1,2,3-triazol-1-yl)methyl)phenyl)-1,3,4-oxadiazole] | 202 nM | > 200000 nM
25 | FC(F)c1nnc(-c2ccc(Cn3nnc(-c4cccc(-c5cnc(N6CCOCC6)s5)c4)n3)cc2)o1 [compd. 253, 4-(5-(3-(2-(4-(5-(difluoromethyl)-1,3,4-oxadiazol-2-yl)benzyl)-2H-tetrazol-5-yl)phenyl)thiazol-2-yl)morpholine] | 352 nM | > 200000 nM
26 | FC(F)c1nnc(-c2ccc(Cn3nnc(-c4cccs4)n3)cc2)o1 [compd. 261, 2-(difluoromethyl)-5-(4-((5-(thiophen-2-yl)-2H-tetrazol-2-yl)methyl)phenyl)-1,3,4-oxadiazole] | 181 nM | > 200000 nM
27 | O=C(Nc1cccc(-c2cn(Cc3ccc(-c4nnc(C(F)F)o4)cc3)cn2)c1)N1CCOCC1 [compd. 267, N-(3-(1-(4-(5-(difluoromethyl)-1,3,4-oxadiazol-2-yl)benzyl)-1H-imidazol-4-yl)phenyl)morpholine-4-carboxamide] | 85 nM | > 200000 nM
